Experimental data from PMC7452891, “Cytokinin fluoroprobe reveals multiple sites of cytokinin perception at plasma membrane and endoplasmic reticulum” (Nature Communications, 2020).

Key:
[1] = target: T1, AtCKX2 (CYTOKININ OXIDASE/DEHYDROGENASE) (Arabidopsis thaliana, UniProt Q9FUJ3); test: in vitro enzymatic reaction with AtCKX2 (kcat, Vmax/Km); assay type: biochemical
T1 construct: gene CKX2
T1 sequence (Q9FUJ3 23-501): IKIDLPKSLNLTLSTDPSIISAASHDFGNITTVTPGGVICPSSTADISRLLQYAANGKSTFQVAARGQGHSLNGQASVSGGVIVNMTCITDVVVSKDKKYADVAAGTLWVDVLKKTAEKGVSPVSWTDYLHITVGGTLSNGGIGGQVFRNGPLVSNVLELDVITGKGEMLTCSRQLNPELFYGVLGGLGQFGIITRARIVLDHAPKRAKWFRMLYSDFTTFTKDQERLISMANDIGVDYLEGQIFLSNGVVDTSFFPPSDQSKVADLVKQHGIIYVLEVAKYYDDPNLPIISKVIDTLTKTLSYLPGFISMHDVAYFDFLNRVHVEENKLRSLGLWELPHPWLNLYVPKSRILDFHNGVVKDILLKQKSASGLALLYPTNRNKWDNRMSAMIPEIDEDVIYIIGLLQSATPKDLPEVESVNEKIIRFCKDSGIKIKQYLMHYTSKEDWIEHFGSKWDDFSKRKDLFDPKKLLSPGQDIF

[2] = target: T2, CRE1/AHK4 (ARABIDOPSIS HISTIDINE KINASE 4) (Arabidopsis thaliana, UniProt Q9C5U0); test: competitive radioligand binding assay ([[…]-3H]tZ, [[…]-3H]iP) with E. coli cells expressing the receptor; assay type: cell-based
T2 construct: expressed in E. coli KMI001 (pIN-III-AHK4)
T2 sequence (Q9C5U0 whole entry): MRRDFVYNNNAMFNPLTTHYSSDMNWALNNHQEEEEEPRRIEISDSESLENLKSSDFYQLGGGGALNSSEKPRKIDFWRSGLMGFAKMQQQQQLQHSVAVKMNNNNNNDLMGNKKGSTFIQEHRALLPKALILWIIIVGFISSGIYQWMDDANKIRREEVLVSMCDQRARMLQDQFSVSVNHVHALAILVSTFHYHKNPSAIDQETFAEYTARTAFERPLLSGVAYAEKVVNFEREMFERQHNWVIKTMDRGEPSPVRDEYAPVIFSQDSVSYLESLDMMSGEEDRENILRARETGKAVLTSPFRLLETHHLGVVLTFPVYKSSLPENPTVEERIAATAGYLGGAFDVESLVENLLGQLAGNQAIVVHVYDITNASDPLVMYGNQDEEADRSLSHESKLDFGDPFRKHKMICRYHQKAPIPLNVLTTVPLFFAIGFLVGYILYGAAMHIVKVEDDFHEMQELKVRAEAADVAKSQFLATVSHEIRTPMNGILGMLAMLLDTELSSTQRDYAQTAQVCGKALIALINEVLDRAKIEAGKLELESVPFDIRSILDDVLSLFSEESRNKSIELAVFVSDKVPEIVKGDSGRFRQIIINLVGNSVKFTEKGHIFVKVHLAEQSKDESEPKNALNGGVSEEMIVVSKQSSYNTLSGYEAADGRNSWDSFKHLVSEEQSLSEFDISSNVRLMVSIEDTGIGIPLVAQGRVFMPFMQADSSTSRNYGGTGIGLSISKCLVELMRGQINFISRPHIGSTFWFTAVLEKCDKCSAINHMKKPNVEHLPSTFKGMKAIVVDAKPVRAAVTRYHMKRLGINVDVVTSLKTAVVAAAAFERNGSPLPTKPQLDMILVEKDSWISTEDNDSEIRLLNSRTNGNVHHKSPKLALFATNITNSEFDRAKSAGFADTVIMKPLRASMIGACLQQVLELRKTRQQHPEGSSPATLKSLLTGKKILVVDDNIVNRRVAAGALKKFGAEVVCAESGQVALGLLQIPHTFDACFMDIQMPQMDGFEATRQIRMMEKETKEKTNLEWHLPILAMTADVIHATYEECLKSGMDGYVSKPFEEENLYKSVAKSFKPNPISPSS

AHK3 [3] = target: T3, AHK3 (Arabidopsis thaliana, UniProt Q9C5U1); test: as above; assay type: cell-based
T3 construct: expressed in E. coli KMI001 (pSTV28-AHK3)
T3 sequence (Q9C5U1 1-1036): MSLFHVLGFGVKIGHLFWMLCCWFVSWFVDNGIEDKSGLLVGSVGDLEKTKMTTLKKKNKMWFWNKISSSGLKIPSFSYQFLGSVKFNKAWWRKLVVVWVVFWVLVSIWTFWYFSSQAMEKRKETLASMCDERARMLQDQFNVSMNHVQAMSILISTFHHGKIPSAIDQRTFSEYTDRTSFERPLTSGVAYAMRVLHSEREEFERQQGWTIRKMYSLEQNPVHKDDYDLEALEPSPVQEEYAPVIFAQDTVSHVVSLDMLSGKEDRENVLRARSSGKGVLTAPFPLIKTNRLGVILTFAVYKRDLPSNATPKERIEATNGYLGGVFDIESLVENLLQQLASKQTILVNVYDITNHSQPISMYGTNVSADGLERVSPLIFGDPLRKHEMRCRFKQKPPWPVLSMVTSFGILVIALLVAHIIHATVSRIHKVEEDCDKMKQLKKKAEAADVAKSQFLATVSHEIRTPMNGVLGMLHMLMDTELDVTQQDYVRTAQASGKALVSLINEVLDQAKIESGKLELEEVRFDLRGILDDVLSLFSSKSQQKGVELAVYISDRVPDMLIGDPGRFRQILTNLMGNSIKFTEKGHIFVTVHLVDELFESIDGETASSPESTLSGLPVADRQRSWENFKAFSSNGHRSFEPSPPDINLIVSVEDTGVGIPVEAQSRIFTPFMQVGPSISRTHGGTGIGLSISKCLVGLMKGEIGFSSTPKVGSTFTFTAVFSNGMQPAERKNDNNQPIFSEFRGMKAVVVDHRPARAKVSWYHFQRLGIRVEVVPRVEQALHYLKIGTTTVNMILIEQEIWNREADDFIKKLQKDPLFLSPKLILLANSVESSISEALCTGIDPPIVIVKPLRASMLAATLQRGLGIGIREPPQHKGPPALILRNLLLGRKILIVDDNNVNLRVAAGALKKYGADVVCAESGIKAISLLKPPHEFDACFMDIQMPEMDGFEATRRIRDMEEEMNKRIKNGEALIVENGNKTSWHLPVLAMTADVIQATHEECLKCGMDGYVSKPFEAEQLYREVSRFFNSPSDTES

[4] = target: T2, CRE1/AHK4 (ARABIDOPSIS HISTIDINE KINASE 4); test: radioligand ([[…]-3H]tZ, […]) in competitive binding assay with E. coli cells
AHK3 [5] = target: T3, AHK3; test: as above

| Ki [2] [nM] | Ki (AHK3 [3]) [µM] | SMILES | in vitro enzymatic reaction with AtCKX2 (kcat, Vmax/Km) [1] | radioligand ([2-3H]tZ, 3 nM) in competitive binding assay with E. coli cells [4] | radioligand ([2-3H]tZ, 3 nM) in competitive binding assay with E. coli cells (AHK3 [5]) |
| --- | --- | --- | --- | --- | --- |
| ~1400 | ~37 | CC(C)=CCNc1ncnc2c1ncn2CCNc1ccc([N+](=O)[O-])c2nonc12 [iP-NBD] | AtCKX2 converted iP-NBD to the product with approx. six times lower turnover rate kcat compared to the parental iP | – | – |
| – | – | C/C(=C\CNc1ncnc2[nH]cnc12)CO [tZ] | – | iP-NBD competes for receptor binding with radiolabelled natural cytokinins iP and tZ | iP-NBD competes for receptor binding with radiolabelled natural cytokinins iP and tZ |
